EC50, Activity and Efficacy data for seven molecules are collected here from ChEMBL document CHEMBL3044799, “Biological activity of the succinate dehydrogenase inhibitor fluopyram against Botrytis cinerea and fungal baseline sensitivity” (Pest Manag Sci, 2012).

Converted amounts (≈) assume the structure as drawn.

The subject of assay [1] is Botrytis cinerea. Description: Antifungal activity against Botryotinia fuckeliana inoculated in strawberry fruit. In kind it is functional, organism-based.
Assay [2] concerns Botrytis cinerea. Description: Protective antifungal activity against Botryotinia fuckeliana inoculated in fungicide-applied strawberry fruit assessed as disease severity measuring lesion diameter at 300 ug AI/ml applied 24 hr prior inoculation. Format: functional.
In assay [3] the test system is Botrytis cinerea. Briefly: Protective antifungal activity against Botryotinia fuckeliana inoculated in fungicide-applied strawberry fruit assessed as disease control efficacy at 300 ug AI/ml applied 24 hr prior inoculation relative to control. Format: functional.
For assay [4], the system named is Botrytis cinerea. Briefly: Protective antifungal activity against Botryotinia fuckeliana inoculated in fungicide-applied strawberry fruit assessed as disease severity measuring lesion diameter at 300 ug AI/ml applied 48 hr prior inoculation. In kind it is functional.
The test system of assay [5] is Botrytis cinerea. Briefly: Protective antifungal activity against Botryotinia fuckeliana inoculated in fungicide-applied strawberry fruit assessed as disease control efficacy at 300 ug AI/ml applied 48 hr prior inoculation relative to control. Format: functional.
For assay [6], the system named is Botrytis cinerea. Briefly: Curative antifungal activity against Botryotinia fuckeliana inoculated in strawberry fruit assessed as disease control efficacy at 300 ug AI/ml applied 24 hr post-inoculation relative to control. In kind it is functional.
Assay [7] deals with Botrytis cinerea. Description: Curative antifungal activity against Botryotinia fuckeliana inoculated in strawberry fruit assessed as disease control efficacy at 300 ug AI/ml applied 48 hr post-inoculation relative to control. Format: functional.
The test system of assay [8] is Botrytis cinerea. Briefly: Curative antifungal activity against Botryotinia fuckeliana inoculated in strawberry fruit assessed as disease severity measuring lesion diameter at 300 ug AI/ml applied 48 hr post-inoculation. Format: functional.
Assay [9] concerns Botrytis cinerea. Description: Curative antifungal activity against Botryotinia fuckeliana inoculated in strawberry fruit assessed as disease severity measuring lesion diameter at 300 ug AI/ml applied 96 hr post-inoculation. Format: functional.
The subject of assay [10] is Botrytis cinerea. Briefly: Protective antifungal activity against Botryotinia fuckeliana inoculated in fungicide-applied strawberry fruit assessed as disease severity measuring lesion diameter at 300 ug AI/ml applied 96 hr prior-inoculation. In kind it is functional.
The subject of assay [11] is Botrytis cinerea. Briefly: Protective antifungal activity against Botryotinia fuckeliana inoculated in fungicide-applied strawberry fruit assessed as disease control efficacy at 300 ug AI/ml applied 96 hr prior-inoculation relative to control. In kind it is functional.
The subject of assay [12] is Botrytis cinerea. Description: Curative antifungal activity against Botryotinia fuckeliana inoculated in strawberry fruit assessed as disease control efficacy at 300 ug AI/ml applied 96 hr post-inoculation relative to control. In kind it is functional.
For assay [13], the system named is Botrytis cinerea. Description: Curative antifungal activity against Botryotinia fuckeliana inoculated in strawberry fruit assessed as disease severity measuring lesion diameter at 300 ug AI/ml applied 24 hr post-inoculation. Format: functional.
Assay [14] has as its system Botrytis cinerea. Briefly: Protective antifungal activity against Botryotinia fuckeliana inoculated in fungicide-applied strawberry fruit assessed as disease severity measuring lesion diameter at 100 ug AI/ml applied 96 hr prior-inoculation. In kind it is functional.
For assay [15], the system named is Botrytis cinerea. Description: Protective antifungal activity against Botryotinia fuckeliana inoculated in fungicide-applied strawberry fruit assessed as disease severity measuring lesion diameter at 100 ug AI/ml applied 24 hr prior inoculation. Format: functional.
For assay [16], the system named is Botrytis cinerea. Description: Curative antifungal activity against Botryotinia fuckeliana inoculated in strawberry fruit assessed as disease severity measuring lesion diameter at 100 ug AI/ml applied 48 hr post-inoculation. Format: functional.
Assay [17] relates to Botrytis cinerea. Briefly: Protective antifungal activity against Botryotinia fuckeliana inoculated in fungicide-applied strawberry fruit assessed as disease severity measuring lesion diameter at 100 ug AI/ml applied 48 hr prior inoculation. Format: functional.
For assay [18], the system named is Botrytis cinerea. Description: Curative antifungal activity against Botryotinia fuckeliana inoculated in strawberry fruit assessed as disease control efficacy at 100 ug AI/ml applied 96 hr post-inoculation relative to control. Format: functional.
Assay [19] concerns Botrytis cinerea. Description: Curative antifungal activity against Botryotinia fuckeliana inoculated in strawberry fruit assessed as disease control efficacy at 100 ug AI/ml applied 24 hr post-inoculation relative to control. Format: functional.
In assay [20] the test system is Botrytis cinerea. Description: Protective antifungal activity against Botryotinia fuckeliana inoculated in fungicide-applied strawberry fruit assessed as disease control efficacy at 100 ug AI/ml applied 48 hr prior inoculation relative to control. In kind it is functional.
Assay [21] deals with Botrytis cinerea. Briefly: Curative antifungal activity against Botryotinia fuckeliana inoculated in strawberry fruit assessed as disease severity measuring lesion diameter at 100 ug AI/ml applied 24 hr post-inoculation. Format: functional.
The subject of assay [22] is Botrytis cinerea. Briefly: Protective antifungal activity against Botryotinia fuckeliana inoculated in fungicide-applied strawberry fruit assessed as disease control efficacy at 100 ug AI/ml applied 24 hr prior inoculation relative to control. In kind it is functional.
The test system of assay [23] is Botrytis cinerea. Briefly: Curative antifungal activity against Botryotinia fuckeliana inoculated in strawberry fruit assessed as disease control efficacy at 100 ug AI/ml applied 48 hr post-inoculation relative to control. Format: functional.
In assay [24] the test system is Botrytis cinerea. Briefly: Curative antifungal activity against Botryotinia fuckeliana inoculated in strawberry fruit assessed as disease severity measuring lesion diameter at 100 ug AI/ml applied 96 hr post-inoculation. In kind it is functional.
Assay [25] has as its system Botrytis cinerea. Description: Protective antifungal activity against Botryotinia fuckeliana inoculated in fungicide-applied strawberry fruit assessed as disease control efficacy at 100 ug AI/ml applied 96 hr prior-inoculation relative to control. Format: functional.

In the case of `O=C(Nc1ccccc1-c1ccc(Cl)cc1)c1cccnc1Cl` [BOSCALID], the half-maximal effective concentration (EC50) in the assay on Botrytis cinerea [1] stood at 0.09 µg/mL (≈ 0.262 µM). The Activity worked out at 1.5 mm in the assay with Botrytis cinerea [2]; 3 mm in the assay on Botrytis cinerea [4]; 1.1 mm in the assay with Botrytis cinerea [8]; 13.2 mm in the assay on Botrytis cinerea [9]; 3.4 mm with Botrytis cinerea [10]; 4.7 mm with Botrytis cinerea [13]. In addition, the Efficacy in the assay on Botrytis cinerea [3] is given as 91.7%; in the assay on Botrytis cinerea [5], 84%; in the assay with Botrytis cinerea [6], 74.7%; in the assay with Botrytis cinerea [7], 94.1%; in the assay on Botrytis cinerea [11], 81.8%; in the assay with Botrytis cinerea [12], 29.8%.

`COC(=O)Nc1nc2ccccc2[nH]1` [CARBENDAZIM] returned an EC50 with Botrytis cinerea [1] of 0.05 µg/mL (≈ 0.262 µM).

`Cc1cc(C2CC2)nc(Nc2ccccc2)n1` [CYPRODINIL] registered an EC50 in the assay with Botrytis cinerea [1] of 0.007 µg/mL (≈ 0.0311 µM).

On to `CC1(C(=O)Nc2ccc(O)c(Cl)c2Cl)CCCCC1` [FENHEXAMID], for which, in the assay with Botrytis cinerea [1], the 50% effective concentration (EC50) turned out to be 0.04 µg/mL (≈ 0.132 µM). Also, the Activity was determined as 1 mm in the assay on Botrytis cinerea [14]; 0.1 mm with Botrytis cinerea [15]; 2 mm in the assay on Botrytis cinerea [16]; 0.4 mm with Botrytis cinerea [17]; 7.2 mm with Botrytis cinerea [21]; 14.5 mm with Botrytis cinerea [24]. For the same molecule, the Efficacy stood at 23.2% in the assay on Botrytis cinerea [18]; 61.4% with Botrytis cinerea [19]; 97.6% with Botrytis cinerea [20]; 99.2% in the assay on Botrytis cinerea [22]; 89.2% in the assay on Botrytis cinerea [23]; 94.4% in the assay on Botrytis cinerea [25].

`N#Cc1c[nH]cc1-c1cccc2c1OC(F)(F)O2` [FLUDIOXONIL] registered an EC50 with Botrytis cinerea [1] of 0.003 µg/mL (≈ 0.0121 µM).

In the assay on Botrytis cinerea [1], `CC(C)NC(=O)N1CC(=O)N(c2cc(Cl)cc(Cl)c2)C1=O` [IPRODIONE] gave a concentration giving a half-maximal response (EC50) of 0.25 µg/mL (≈ 0.757 µM).

In the assay on Botrytis cinerea [1], `COC(=O)N(OC)c1ccccc1COc1ccn(-c2ccc(Cl)cc2)n1` [PYRACLOSTROBIN] returned an EC50 of 0.01 µg/mL (≈ 0.0258 µM).
